Reference: US20230285556A1, “METHODS AND COMPOSITIONS FOR TREATING CANCER” (Omeros Corporation, priority 2021, published 2023)
Where “and” joins values, the source holds several entries; their conditions need not be identical. Equal entries are not always repeated.

Legend:
human CD8 T cells [1] = assay: Example 4: human CD8 T cell expansion with GPR174, A2A, PKA or EPAC inhibitors, IL-2 after restimulation; format: cell-based; conditions: 300 nM Compound #10, 100 nM ZM-241385, 500 μM Rp-8-Br-cAMPS, 5 μM ESI-09; 5.5 hours restimulation
Description: Purified human CD8 T cells were cultured in 24-well plates with the following conditions per well: • 2 mL X-VIVO™ 15 media (Lonza) • 0.4 million human CD8 T cells (Donor A) • 2 million Human T-Activator CD3/CD28 Dynabeads® (ThermoFisher) • 10 ng/mL human IL-7 (R&D Systems) • 10 ng/mL human IL-15 (R&D Systems)
and the following individual conditions, ±300 nM Compound #10: • 1. DMSO vehicle control • 2. […] 500 μM Rp-8-Br-cAMPS • 4. 5 μM ESI-09
On days 3, 5, and 7, cultures were washed and seeded at 0.5 cells million per well with the same small molecule inhibitor conditions, and with IL-7 and IL-15.
After 5.5 hours of culture, supernatants were harvested and analyzed for IL-2 content (MesoScale Discovery).

[2] = tested on: OT-I TCR transgenic CD8 T cells; assay: Example 6: immunophenotyping of OT-I T cells on day 8; format: cell-based, mouse; conditions: 8 days of culture
Description: (§1) and the following individual conditions: • 1. DMSO vehicle control • 2. 0.2 μM doramapimod • 3. 500 μM Rp-8-Br-cAMPS • 4. 0.2 μM doramapimod+500 μM Rp-8-Br-cAMPS
On days 2, 4, 6, and 8, cells were counted, washed, and reseeded at 0.5 million per well in 2 mL media with the same 4 doramapimod/Rp-8-Br-cAMPS conditions and with recombinant mouse IL-2 and IL-7 (5 ng/mL each). On day 8, cells were immunophenotyped with the following antibodies: anti-CD8 BV570, anti-CD62L eFluor450, anti-TCF1/TCF7 PE, anti-CD39 PerCP-eFluor710, anti-CD69 BV605, anti-PD-1 BV711, anti-CTLA-4 APC, and LIVE/DEAD™ Fixable Green Dead Cell Stain.

[3] = tested on: OT-I TCR transgenic CD8 T cells; assay: Example 6: OT-I CD8 T cell expansion with PKA and p38 inhibitors, IL-2 after restimulation with EG7 cells; format: cell-based, mouse; conditions: 0.2 μM doramapimod, 500 μM Rp-8-Br-cAMPS
Description: as §1
On day 8, cells were immunophenotyped with the following antibodies: anti-CD8 BV570, anti-CD62L eFluor450, anti-TCF1/TCF7 PE, anti-CD39 PerCP-eFluor710, anti-CD69 BV605, anti-PD-1 BV711, anti-CTLA-4 APC, and LIVE/DEAD™ Fixable Green Dead Cell Stain.
(§2) After overnight culture, supernatants were harvested and analyzed for IL-2 content (MesoScale Discovery).

human CD8 T cells [4] = assay: Example 5: T cell number increase during 10-day expansion; format: cell-based
Description: (§3) DMSO vehicle control • 2. […] 500 μM Rp-8-Br-cAMPS • 4. […] 0.5 μM doramapimod • 6. Media control
(§4) or the following individual conditions for the experiment shown in FIG. 8, each ±0.5 μM doramapimod: • 1. DMSO vehicle control • 2. 500 μM Rp-8-Br-cAMPS • 3. […] 5 μM ESI-09
(§5) On days 3, 5, and 7, cultures were washed and seeded at 0.5 cells million per well with the same small molecule inhibitor conditions, and with IL-7 and IL-15. On day 10, cells were washed twice (12 mL media each), and restimulated in quadruplicate in 96-well round-bottom plates with the following conditions: • 0.1 mL X-VIVO™ 15 media (Lonza) • 0.05 million cells from each condition • 0.1 million Human T-Activator CD3/CD28 Dynabeads® (ThermoFisher)

[5] = tested on: OT-I TCR transgenic CD8 T cells; assay: Example 8: OT-I CD8 T cell 9-day expansion with PKA, p38, PI3Kδ inhibitors, IL-2 after restimulation with EG7 cells; format: cell-based, mouse
Description: DMSO vehicle control • 2. 0.5 μM doramapimod • 3. 500 μM Rp-8-Br-cAMPS • 4. 0.5 μM doramapimod+500 μM Rp-8-Br-cAMPS • 5. 1 μM idelalisib • 6. 1 μM idelalisib+0.5 μM doramapimod • 7. 1 μM idelalisib+500 μM Rp-8-Br-cAMPS • 8. 1 μM idelalisib+0.5 μM doramapimod+500 μM Rp-8-Br-cAMPS
On days 2, 4, 6, and 8, cells were counted, washed and reseeded at 0.5 million per well in 2 mL media with the same 8 conditions and with recombinant mouse IL-2 and IL-7 (5 ng/mL each). […] Cells were also washed three times (12 mL media each), and restimulated in quintuplicate in 96-well round-bottom plates with the following conditions: • 0.1 mL RP10 media • 0.05 million OT-I T cells from each condition • 0.05 million EG7 cells
as §2

human CD8 T cells [6] = assay: Example 5: human CD8 T cell expansion with cAMP pathway and p38 inhibitors, IL-2 after restimulation; format: cell-based; conditions: 500 μM Rp-8-Br-cAMPS, 0.5 μM doramapimod
Description: as §3, §4, §5, §2

EG7 tumors = assay: Example 7: adoptive transfer of inhibitor-precultured OT-1 T cells into EG7 tumor-bearing mice; format: in vivo, mouse
Description: as §1
On day 6 cells were seeded in 6-well plates with […] per well, and on day 8 cells were seeded in T75 flasks in 30 mL media to obtain enough cells to transfer into EG7 tumor-bearing mice.
C57BL/6 female mice were implanted with 6 million EG7 tumor cells subcutaneously on day 4 of the OT-1 T cell expansion. On day 6 of tumor growth (day 10 of OT-1 T cell expansion) OT-1 T cells were washed and injected retro-orbitally into tumor bearing mice that had been sorted into 4 groups with equal tumor volume distributions (n=8). Via retroorbital injection, mice received 2 million OT1 T cells of each of the 4 culture conditions. Tumor volume (mm^3) was calculated as 0.5×(length×width^2), where length represents the largest tumor diameter and width represents the perpendicular tumor diameter. Mice were euthanized when the sum of the two measurements exceeded 30 mm.

GPR174 [7] = molecular target: T1, GPR174 (Homo sapiens, UniProt Q9BXC1); assay: CRA (EC50) of GPR174 inhibitor compounds, tested as described in US 20200276190; format: cell-based; conditions: multiple values = separate experiments
Description: (§6) Where present, multiple EC50 values correspond to values obtained in separate experiments. […] The activity of the compounds was tested as described in US 20200276190, the disclosure of which is incorporated herein by reference.

GPR174 [8] = molecular target: T1, GPR174; assay: Human GPR174 CRE activity / Gs signaling; format: cell-based
Description: as §6

T1 sequence (Q9BXC1 whole entry): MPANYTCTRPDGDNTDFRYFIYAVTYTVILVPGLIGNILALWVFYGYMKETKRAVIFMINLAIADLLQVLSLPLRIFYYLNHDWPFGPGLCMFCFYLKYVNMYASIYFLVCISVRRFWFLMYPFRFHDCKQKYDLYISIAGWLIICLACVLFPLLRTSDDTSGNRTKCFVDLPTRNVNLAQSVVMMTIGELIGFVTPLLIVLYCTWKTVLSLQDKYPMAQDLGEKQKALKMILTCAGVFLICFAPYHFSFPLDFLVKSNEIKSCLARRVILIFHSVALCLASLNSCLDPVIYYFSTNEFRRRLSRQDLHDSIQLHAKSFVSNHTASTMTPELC

In the case of Nc1ncnc2c1nc(Br)n2[C@@H]1O[C@@H]2COP([O-])(=S)O[C@H]2[C@H]1O.[Na+] (single isomer, unassigned) [Rp-8-Br-cAMPS, 8-Br-cAMPS, Rp-isomer], the “IL-2 production following restimulation, fold increase vs vehicle (FIG. 6)” value (human CD8 T cells [1]) is reported as 3.7 fold, the “downregulation of CTLA-4” value [2] is reported as “particularly effective at downregulating CTLA-4” and the “increase in cells expressing both CD62L and TCF1/TCF7 relative to vehicle control” value [2] is reported as “smaller increases”. The “percentage of OT-I T cells expressing both CD39 and CD69” value ([2]; vehicle 22%) was “smaller reductions”, the “IL-2 production from 8-day OT-I cultures, fold vs vehicle control” value ([3]; day 8 restimulation with EG7 cells) was 5.3 fold and the “IL-2 production from 10-day OT-I cultures, fold over vehicle control” value ([3]; day 10 restimulation with EG7 cells) was 18 fold. The “T cell growth during the 10-day culture relative to vehicle-treated cells (FIG. 8)” value (human CD8 T cells [4]) was about 2 fold, the “fold-increase in T cell number during the 10-day expansion (FIG. 7)” value (human CD8 T cells [4]; vehicle and media controls approximately 50-fold) was 170 fold and the “Fold-change in IL-2 production relative to Vehicle control” value ([5]; Idelalisib (agent together with 1 μM idelalisib)) was 89.9. The “Fold-change in IL-2 production relative to Vehicle control” value ([5]; column Vehicle (without idelalisib), 0.5 μM doramapimod, 500 μM Rp-8-Br-cAMPS) was 1.6, the “IL-2 production following restimulation, fold above vehicle control (FIG. 8)” value (human CD8 T cells [6]; 10 μM HJC-0197, 5 μM ESI-09) was 2 fold and the “IL-2 production following restimulation, fold vs vehicle (FIG. 7)” value (human CD8 T cells [6]; GPR174+A2A inhibitors, overnight restimulation) was 3.6 fold. The “tumor growth / tumor volume after transfer of precultured OT-1 T cells” value (EG7 tumors; 2 million OT-1 T cells expanded 10 days with 0.2 μM doramapimod and/or 500 μM Rp-8-Br-cAMPS, retro-orbital, relative to vehicle control cells) was “significantly halted and delayed tumor growth” and the “survival of tumor-bearing mice” value (EG7 tumors; OT-1 T cells precultured with inhibitor(s), relative to vehicle group) was “intermediate survival times”.
CCOC(=O)N1CCN(c2cc(N3CCC(C)CC3)c(F)cc2[N+](=O)[O-])CC1 [Compound 1] was tested, and the EC50 (GPR174 [7]) was 1500 nM and 900 nM.
CC(=O)N1CCN(c2cc(N3CCCCC3)c(F)cc2[N+](=O)[O-])CC1 [Compound 2] was tested, and the EC50 (GPR174 [7]) was 3300 nM and 3000 nM and 5100 nM.
CC(=O)c1ccc(N2CCN(C(=O)c3ccc(F)cc3)CC2)c(F)c1 [Compound 3] was tested, and the “Human GPR174 CRE Activity (type of modulation)” value (“Human GPR174 CRE Activity” below) (GPR174 [8]) was “Antagonist or allosteric modulator” and the EC50 (GPR174 [7]) was 4100 nM.
CCCC(=O)c1ccc(N2CCN(S(=O)(=O)c3ccc(C)cc3)CC2)c(F)c1 [Compound 4] was tested, and the “Human GPR174 CRE Activity” value (GPR174 [8]) was “Antagonist”, the “competition with the GPR174 agonist LysoPS” value (GPR174 [8]) was “found to compete with the GPR174 agonist LysoPS” and the EC50 (GPR174 [7]) was 200 nM.
For O=C(c1ccccc1)N1CCN(c2cc(N3CCCCC3)c(F)cc2[N+](=O)[O-])CC1 [Compound 6], the EC50 (GPR174 [7]) was 1400 nM.
For Cc1ccc(-c2nnc(Nc3ccccc3)c3ccccc23)cc1S(N)(=O)=O [Compound 19], the “Human GPR174 CRE Activity” value (GPR174 [8]) was “Antagonist or allosteric modulator”.
In the case of Cc1ccccc1Nc1nnc(-c2ccc(C)c(S(N)(=O)=O)c2)c2ccccc12 [Compound 20], the “Human GPR174 CRE Activity” value (GPR174 [8]) is reported as “Antagonist or allosteric modulator” and the EC50 (GPR174 [7]) is reported as 5000 nM.
With Cc1cc(Cc2ccc(NC(=O)c3cccs3)c(C)c2)ccc1NC(=O)c1cccs1 [Compound 21] the “Human GPR174 CRE Activity” value (GPR174 [8]) was “Antagonist or allosteric modulator” and the EC50 (GPR174 [7]) was 2700 nM.
